Laboratory results reported in US20030171329A1, “Stable compositions comprising tezacitabine” (priority 2002, published 2003).
Like-named read-outs stand apart in the source and are kept apart here.

Key:
[1] = Method: In this study the stabilty of FMdC glutamate and glycine buffers at pH 8.5 to 9.5 was evaluated at various storage conditions (5°, 25°, 35°, 45°, and 55° C.). FMdC solutions were made up at 1 mg/mL in 7.1 mg/mL monosodium glutamate monohydrate (38 mM) or 2.8 mg/mL glycine (37 mM) and pH adjusted to target with sodium hydroxide. Solution samples were placed in stoppered glass vials and stored at the various temperatures. […] Detention was by UV at 268 nm.
The higher-temperature data can be evaluated further by Arrhenius analysis to predict shelf lives at lower temperatures. First-order rate constants are determined by fitting the concentration and time data to an equation of the form C(t)=C(0)·exp (−k·t), where C(t) is the concentration at time t, C(0) is the concentration at time 0, t is the time, and k is the first-order rate constant. The rate constants are in turn fitted to an equation of the form k (T)=A·exp (−Ea/RT), where k(T) is the rate constant at temperature T, Ea is the energy of activation, R is the gas constant, T is the absolute temperature (in ° K), and A is a constant.

[2] = Stability of tezacitabine in unbuffered aqueous solution; type: physicochemical
[3] = Glutamate pH 8.5 buffer, 5° C., 24 weeks
[4] = Glutamate pH 8.5 buffer, 25° C., 0 weeks
[5] = Glutamate pH 8.5 buffer, 25° C., 4 weeks
[6] = Glutamate pH 8.5 buffer, 25° C., 16 weeks
[7] = Glutamate pH 8.5 buffer, 25° C., 24 weeks
[8] = Glutamate pH 8.5 buffer, 35° C., 0 weeks
[9] = Glutamate pH 8.5 buffer, 35° C., 4 weeks
[10] = Glutamate pH 8.5 buffer, 35° C., 16 weeks
[11] = Glutamate pH 8.5 buffer, 35° C., 24 weeks
[12] = Glutamate pH 8.5 buffer, 45° C., 0 weeks
[13] = Glutamate pH 8.5 buffer, 45° C., 4 weeks
[14] = Glutamate pH 9.0 buffer, 5° C., 24 weeks
[15] = Glutamate pH 9.0 buffer, 25° C., 0 weeks
[16] = Glutamate pH 9.0 buffer, 25° C., 4 weeks
[17] = Glutamate pH 9.0 buffer, 25° C., 16 weeks
[18] = Glutamate pH 9.0 buffer, 25° C., 24 weeks
[19] = Glutamate pH 9.0 buffer, 35° C., 0 weeks
[20] = Glutamate pH 9.0 buffer, 35° C., 4 weeks
[21] = Glutamate pH 9.0 buffer, 35° C., 16 weeks
[22] = Glutamate pH 9.0 buffer, 35° C., 24 weeks
[23] = Glutamate pH 9.0 buffer, 45° C., 0 weeks
[24] = Glutamate pH 9.0 buffer, 45° C., 4 weeks
[25] = Glutamate pH 9.5 buffer, 5° C., 24 weeks
[26] = Glutamate pH 9.5 buffer, 25° C., 0 weeks
[27] = Glutamate pH 9.5 buffer, 25° C., 4 weeks
[28] = Glutamate pH 9.5 buffer, 25° C., 16 weeks
[29] = Glutamate pH 9.5 buffer, 25° C., 24 weeks
[30] = Glutamate pH 9.5 buffer, 35° C., 0 weeks
[31] = Glutamate pH 9.5 buffer, 35° C., 4 weeks
[32] = Glutamate pH 9.5 buffer, 35° C., 16 weeks
[33] = Glutamate pH 9.5 buffer, 35° C., 24 weeks
[34] = Glutamate pH 9.5 buffer, 45° C., 0 weeks
[35] = Glutamate pH 9.5 buffer, 45° C., 4 weeks
[36] = Glycine pH 9.0 buffer, 5° C., 24 weeks
[37] = Glycine pH 9.0 buffer, 25° C., 0 weeks
[38] = Glycine pH 9.0 buffer, 25° C., 4 weeks
[39] = Glycine pH 9.0 buffer, 25° C., 16 weeks
[40] = Glycine pH 9.0 buffer, 25° C., 24 weeks
[41] = Glycine pH 9.0 buffer, 35° C., 0 weeks
[42] = Glycine pH 9.0 buffer, 35° C., 16 weeks
[43] = Glycine pH 9.0 buffer, 35° C., 24 weeks
[44] = Glycine pH 9.0 buffer, 45° C., 0 weeks

For `Nc1ccn([C@@H]2O[C@H](CO)[C@@H](O)/C2=C\F)c(=O)n1` [FMdC, (E)-2′-deoxy-2′-(fluoromethylene)cytidine], the stability in words ([1]; 1 mg/mL) was “stable for almost 6 months”, the “predicted first-order rate constant of degradation” value ([1]; 1 mg/mL, pH 9) was 3.0·10^−4 week^−1 and the FMdC ([1]; Glutamate pH 8.5 buffer, 5° C., 12 weeks) was 1.00 mg/mL. The pH ([1]; Glutamate pH 8.5 buffer, 5° C., 16 weeks) was 8.63, the FMdC [1, 3] was 1.00 mg/mL and the pH [1, 3] was 8.66. It also gave an FMdC [1, 4] of 1.00 mg/mL, a pH [1, 4] of 8.50 and an FMdC [1, 5] of 1.00 mg/mL. For the same compound, the pH [1, 5] was 8.55, the FMdC [1, 6] was 0.99 mg/mL and the pH [1, 6] was 7.93. For the same compound, the FMdC [1, 7] was 0.99 mg/mL, the pH [1, 7] was 8.64 and the FMdC [1, 8] was 1.00 mg/mL. For the same compound, the pH [1, 8] was 8.50, the FMdC [1, 9] was 1.00 mg/mL and the pH [1, 9] was 8.55. For the same compound, the FMdC [1, 10] was 0.97 mg/mL, the pH [1, 10] was 8.59 and the FMdC [1, 11] was 0.95 mg/mL. For the same compound, the pH [1, 11] was 8.58, the FMdC [1, 12] was 1.00 mg/mL and the pH [1, 12] was 8.50. For the same compound, the FMdC [1, 13] was 0.98 mg/mL, the pH [1, 13] was 8.56 and the FMdC ([1]; Glutamate pH 8.5 buffer, 45° C., 16 weeks) was 0.85 mg/mL. It also gave an FMdC ([1]; Glutamate pH 8.5 buffer, 45° C., 24 weeks) of 0.47 mg/mL, an FMdC ([1]; Glutamate pH 8.5 buffer, 55° C., 0 weeks) of 1.00 mg/mL and an FMdC ([1]; Glutamate pH 8.5 buffer, 55° C., 2 weeks) of 0.91 mg/mL. For the same compound, the FMdC ([1]; Glutamate pH 8.5 buffer, 55° C., 4 weeks) was 0.72 mg/mL, the FMdC ([1]; Glutamate pH 8.5 buffer, 55° C., 8 weeks) was 0.03 mg/mL and the FMdC ([1]; Glutamate pH 9.0 buffer, 5° C., 12 weeks) was 1.00 mg/mL. It also gave a pH ([1]; Glutamate pH 9.0 buffer, 5° C., 16 weeks) of 9.10, an FMdC [1, 14] of 1.00 mg/mL and a pH [1, 14] of 9.05. The FMdC [1, 15] was 1.01 mg/mL, the pH [1, 15] was 9.00 and the FMdC [1, 16] was 1.01 mg/mL. For the same compound, the pH [1, 16] was 9.07, the FMdC [1, 17] was 0.99 mg/mL and the pH [1, 17] was 8.80. It also gave an FMdC [1, 18] of 0.99 mg/mL, a pH [1, 18] of 9.09 and an FMdC [1, 19] of 1.01 mg/mL. For the same compound, the pH [1, 19] was 9.00, the FMdC [1, 20] was 1.01 mg/mL and the pH [1, 20] was 9.06. It also gave an FMdC [1, 21] of 0.98 mg/mL, a pH [1, 21] of 9.08 and an FMdC [1, 22] of 0.98 mg/mL. It also gave a pH [1, 22] of 9.08, an FMdC [1, 23] of 1.01 mg/mL and a pH [1, 23] of 9.00. The FMdC [1, 24] was 0.99 mg/mL, the pH [1, 24] was 9.04 and the FMdC ([1]; Glutamate pH 9.0 buffer, 45° C., 16 weeks) was 0.92 mg/mL. For the same compound, the FMdC ([1]; Glutamate pH 9.0 buffer, 45° C., 24 weeks) was 0.88 mg/mL, the FMdC ([1]; Glutamate pH 9.0 buffer, 55° C., 0 weeks) was 1.01 mg/mL and the FMdC ([1]; Glutamate pH 9.0 buffer, 55° C., 2 weeks) was 0.96 mg/mL. It also gave an FMdC ([1]; Glutamate pH 9.0 buffer, 55° C., 4 weeks) of 0.91 mg/mL, an FMdC ([1]; Glutamate pH 9.0 buffer, 55° C., 8 weeks) of 0.78 mg/mL and an FMdC ([1]; Glutamate pH 9.5 buffer, 5° C., 12 weeks) of 1.00 mglmL. The pH ([1]; Glutamate pH 9.5 buffer, 5° C., 16 weeks) was 9.54, the FMdC [1, 25] was 1.01 mglmL and the pH [1, 25] was 9.57. The FMdC [1, 26] was 1.00 mglmL, the pH [1, 26] was 9.50 and the FMdC [1, 27] was 1.00 mglmL. The pH [1, 27] was 9.53, the FMdC [1, 28] was 1.00 mglmL and the pH [1, 28] was 9.55. The FMdC [1, 29] was 0.99 mglmL, the pH [1, 29] was 9.57 and the FMdC [1, 30] was 1.00 mglmL. It also gave a pH [1, 30] of 9.50, an FMdC [1, 31] of 1.00 mglmL and a pH [1, 31] of 9.54. It also gave an FMdC [1, 32] of 0.98 mglmL, a pH [1, 32] of 9.59 and an FMdC [1, 33] of 0.97 mglmL. The pH [1, 33] was 9.62, the FMdC [1, 34] was 1.00 mglmL and the pH [1, 34] was 9.50. It also gave an FMdC [1, 35] of 0.99 mglmL, a pH [1, 35] of 9.56 and an FMdC ([1]; Glutamate pH 9.5 buffer, 45° C., 16 weeks) of 0.92 mglmL. For the same compound, the FMdC ([1]; Glutamate pH 9.5 buffer, 45° C., 24 weeks) was 0.89 mglmL, the FMdC ([1]; Glutamate pH 9.5 buffer, 55° C., 0 weeks) was 1.00 mglmL and the FMdC ([1]; Glutamate pH 9.5 buffer, 55° C., 2 weeks) was 0.97 mglmL. The FMdC ([1]; Glutamate pH 9.5 buffer, 55° C., 4 weeks) was 0.93 mglmL, the FMdC ([1]; Glutamate pH 9.5 buffer, 55° C., 8 weeks) was 0.82 mglmL and the FMdC ([1]; Glycine pH 9.0 buffer, 5° C., 12 weeks) was 1.01 mg/mL. It also gave a pH ([1]; Glycine pH 9.0 buffer, 5° C., 16 weeks) of 9.30, an FMdC [1, 36] of 1.00 mg/mL and a pH [1, 36] of 9.33. The FMdC [1, 37] was 1.00 mg/mL, the pH [1, 37] was 9.00 and the FMdC [1, 38] was 1.01 mg/mL. The pH [1, 38] was 9.33, the FMdC [1, 39] was 1.00 mg/mL and the pH [1, 39] was 9.30. For the same compound, the FMdC [1, 40] was 0.99 mg/mL, the pH [1, 40] was 9.32 and the FMdC [1, 41] was 1.00 mg/mL. The pH [1, 41] was 9.00, the pH ([1]; Glycine pH 9.0 buffer, 35° C., 4 weeks) was 9.32 and the FMdC [1, 42] was 0.98 mg/mL. The pH [1, 42] was 9.32, the FMdC [1, 43] was 0.97 mg/mL and the pH [1, 43] was 9.31. For the same compound, the FMdC [1, 44] was 1.00 mg/mL, the pH [1, 44] was 9.00 and the FMdC ([1]; Glycine pH 9.0 buffer, 45° C., 4 weeks) was 0.99 mg/mL. It also gave an FMdC ([1]; Glycine pH 9.0 buffer, 45° C., 16 weeks) of 0.92 mg/mL, an FMdC ([1]; Glycine pH 9.0 buffer, 45° C., 24 weeks) of 0.88 mg/mL and an FMdC ([1]; Glycine pH 9.0 buffer, 55° C., 0 weeks) of 1.00 mg/mL. For the same compound, the FMdC ([1]; Glycine pH 9.0 buffer, 55° C., 4 weeks) was 0.91 mg/mL, the “shelf-life (time at which 5% degradation would be expected)” value ([1]; pH 9) was “several years” and the pH before storage ([2]; 35° C., start) was “about 7.2”. For the same compound, the “loss of drug (HPLC)” value ([2]; 35° C., within 4 days) was “greater than 90%”, the pH after storage ([2]; 35° C., within 4 days) was “about 4.3” and the “colour change of solution, indicative of degradation” value ([2]; room temperature, within five days) was “changes from colorless to yellow to light brown”.
